Laboratory results taken from US11332463B2, “Spiropiperidine allosteric modulators of nicotinic acetylcholine receptors” (Merck Sharp & Dohme Corp., priority 2018, dated 2022).
Where two headings read alike, the source gives them in different places.

Target: T1, human α7 nicotinic acetylcholine receptor (HEK cell line stably expressing human RIC-3 and human α7) (Homo sapiens, UniProt P36544)
T1 construct: host or cells: HEK cell line (PrecisION hnAChR α7/RIC-3)
Assay: Automated patch-clamp electrophysiology functional assay (Assay A), IonFlux HT, whole-cell population patch
Format: cell-based

[1] = HEK cells expressing human α7/RIC-3, test compound with or without 40 μM acetylcholine, holding potential −60 mV, room temperature, read-out: α7 nAChR Potency
[2] = automated patch-clamp electrophysiology functional assay (Assay A), read-out: α7 nAChR EC50

T1 sequence (P36544 23-502): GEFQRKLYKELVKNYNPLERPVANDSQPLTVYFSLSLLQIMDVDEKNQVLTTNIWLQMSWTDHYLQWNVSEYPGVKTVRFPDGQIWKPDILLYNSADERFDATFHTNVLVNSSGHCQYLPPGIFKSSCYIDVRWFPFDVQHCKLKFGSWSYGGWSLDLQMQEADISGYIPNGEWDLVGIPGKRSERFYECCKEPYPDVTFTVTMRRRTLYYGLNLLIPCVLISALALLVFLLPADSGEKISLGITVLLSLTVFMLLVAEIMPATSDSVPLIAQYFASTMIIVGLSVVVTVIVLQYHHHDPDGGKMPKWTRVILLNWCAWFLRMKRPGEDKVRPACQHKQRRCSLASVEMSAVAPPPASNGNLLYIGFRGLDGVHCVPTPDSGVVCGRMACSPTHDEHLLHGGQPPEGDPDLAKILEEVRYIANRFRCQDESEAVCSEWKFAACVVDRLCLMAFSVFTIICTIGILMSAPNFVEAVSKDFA

SMILES | EC50 [1] | EC50 [2]
Cn1ncc(-c2nc([C@@H]3C(F)(F)C34CCN(S(N)(=O)=O)CC4)no2)c1C(F)(F)F [Example E38] | 100 to 500 nM | 270 nM
CC(C)(C)n1ncc(-c2nc([C@@H]3C(F)(F)C34CCN(S(N)(=O)=O)CC4)no2)c1C(F)(F)F [Example E39] | 100 to 500 nM | 150 nM
NS(=O)(=O)N1CCC2(CC1)[C@H](c1noc(-c3cnn4c3CCCC4)n1)C2(F)F [Example E40] | 500 to 5000 nM | 840 nM
Cc1n[nH]c(C2CC2)c1-c1nc([C@@H]2C(F)(F)C23CCN(S(N)(=O)=O)CC3)no1 [Example E41] | < 100 nM | 15 nM
NS(=O)(=O)N1CCC2(CC1)[C@H](c1noc(-c3cnn4c3CCC4)n1)C2(F)F [Example E42] | 500 to 5000 nM | 1100 nM
Cn1nccc1-c1nc([C@@H]2C(F)(F)C23CCN(S(N)(=O)=O)CC3)no1 [Example E43] | 100 to 500 nM | 500 nM
Cn1nc(-c2nc([C@@H]3C(F)(F)C34CCN(S(N)(=O)=O)CC4)no2)c2c1CCC2 [Example E44] | 100 to 500 nM | 
Cn1nc(C(F)(F)F)cc1-c1nc([C@@H]2C(F)(F)C23CCN(S(N)(=O)=O)CC3)no1 [Example E45] | 500 to 5000 nM | 550 nM
NS(=O)(=O)N1CCC2(CC1)[C@H](c1noc(-c3cc(C(F)(F)F)n(C4CC4)n3)n1)C2(F)F [Example E46] | 500 to 5000 nM | 510 nM
NS(=O)(=O)N1CCC2(CC1)[C@H](c1noc(-c3c4c(nn3C3CC3)CCCC4)n1)C2(F)F [Example E47] | 100 to 500 nM | 
NS(=O)(=O)N1CCC2(CC1)[C@H](c1noc(-c3c(C(F)(F)F)cnn3C3CC3)n1)C2(F)F [Example E48] | < 100 nM | 60 nM
NS(=O)(=O)N1CCC2(CC1)[C@H](c1noc(-c3ccnnc3C3CC3)n1)C2(F)F [Example E49] | 100 to 500 nM | 270 nM
NS(=O)(=O)N1CCC2(CC1)C[C@H]2c1noc(-c2ccnnc2C2CC2)n1 [Example E50] | 500 to 5000 nM | 1400 nM
CC(C)Oc1cc(-c2nc([C@@H]3C(F)(F)C34CCN(S(N)(=O)=O)CC4)no2)ccn1 [Example E51] | 500 to 5000 nM | 530 nM
Cc1cnn(C)c1-c1nc([C@@H]2CC23CCN(S(N)(=O)=O)CC3)no1 [Example E52] | 500 to 5000 nM | 1700 nM
NS(=O)(=O)N1CCC2(CC1)[C@H](c1noc(-c3cnn4c3CSC4)n1)C2(F)F [Example E53] | 500 to 5000 nM | 1200 nM
Cc1c(-c2nc([C@@H]3C(F)(F)C34CCN(S(N)(=O)=O)CC4)no2)c(C(F)(F)F)nn1C1CC1 [Example E54] | 100 to 500 nM | 500 nM
NS(=O)(=O)N1CCC2(CC1)[C@H](c1noc(-c3c(C4CC4)noc3C(F)(F)F)n1)C2(F)F [Example E55] | < 100 nM | 30 nM
NS(=O)(=O)N1CCC2(CC1)[C@H](c1noc(-c3cccnc3)n1)C2(F)F [Example E56] | 500 to 5000 nM | 2600 nM
NS(=O)(=O)N1CCC2(CC1)C[C@H]2c1noc(-c2cnccc2C(F)(F)F)n1 [Example E57] | 500 to 5000 nM | 
NS(=O)(=O)N1CCC2(CC1)C[C@H]2c1noc(-c2cccnc2C(F)(F)F)n1 [Example E58] | 500 to 5000 nM | 3400 nM
NS(=O)(=O)N1CCC2(CC1)C[C@H]2c1noc(-c2cccnc2OCC(F)(F)F)n1 [Example E59] | 100 to 500 nM | 220 nM
NS(=O)(=O)N1CCC2(CC1)C[C@H]2c1noc(-c2cncc(OCC(F)(F)F)c2)n1 [Example E60] | 500 to 5000 nM | 2300 nM
Cc1ncc(C(F)(F)F)cc1-c1nc([C@@H]2CC23CCN(S(N)(=O)=O)CC3)no1 [Example E61] | 500 to 5000 nM | 1500 nM

SMILES | EC50 [1] | EC50 [2]
CC(C)n1nccc1-c1nc([C@@H]2CC23CCN(S(N)(=O)=O)CC3)no1 [Example E62] | 500 to 5000 nM | 1500 nM
NS(=O)(=O)N1CCC2(CC1)C[C@H]2c1noc(-c2ccc(OCC(F)(F)F)nc2)n1 [Example E63] | 500 to 5000 nM | 
Cc1cnn(C2CC2)c1-c1nc([C@@H]2CC23CCN(S(N)(=O)=O)CC3)no1 [Example E64] | 500 to 5000 nM | 520 nM
Cn1nc2c(c1-c1nc([C@@H]3CC34CCN(S(N)(=O)=O)CC4)no1)CCCC2 [Example E65] | 100 to 500 nM | 420 nM
Cn1nc2c(c1-c1nc([C@@H]3C(F)(F)C34CCN(S(N)(=O)=O)CC4)no1)CCCC2 [Example E66] | 100 to 500 nM | 120 nM
NS(=O)(=O)N1CCC2(CC1)[C@H](c1noc(-c3ccccn3)n1)C2(F)F [Example E67] | 500 to 5000 nM | 2100 nM
NS(=O)(=O)N1CCC2(CC1)[C@H](c1noc(-c3conc3C(F)(F)F)n1)C2(F)F [Example E68] | 500 to 5000 nM | 680 nM
NS(=O)(=O)N1CCC2(CC1)C[C@H]2c1noc(-c2cccc3c2CCC3)n1 [Example E69] | < 100 nM | 
NS(=O)(=O)N1CCC2(CC1)C[C@H]2c1noc(-c2cccc(-n3nccc3C(F)(F)F)c2)n1 [Example E70] | 500 to 5000 nM | 2300 nM
NS(=O)(=O)N1CCC2(CC1)C[C@H]2c1noc(-c2ccccc2Oc2ccccc2)n1 [Example E71] | 100 to 500 nM | 360 nM
NS(=O)(=O)N1CCC2(CC1)C[C@H]2c1noc(-c2ccc3c(c2)CCCC3)n1 [Example E72] | 100 to 500 nM | 110 nM
NS(=O)(=O)N1CCC2(CC1)C[C@H]2c1noc(-c2ccccc2-n2cccc2)n1 [Example E73] | 500 to 5000 nM | 640 nM
NS(=O)(=O)N1CCC2(CC1)C[C@H]2c1noc(-c2cccc(-c3ccc(F)cc3)c2)n1 [Example E74] | 100 to 500 nM | 
N#CC1(c2ccccc2-c2nc([C@@H]3CC34CCN(S(N)(=O)=O)CC4)no2)CC1 [Example E75] | 5000 to 50000 nM | 6300 nM
NS(=O)(=O)N1CCC2(CC1)C[C@H]2c1noc(-c2ccccc2-c2ncccn2)n1 [Example E76] | 500 to 5000 nM | 3200 nM
NS(=O)(=O)N1CCC2(CC1)C[C@H]2c1noc(-c2ccccc2-n2cccn2)n1 [Example E77] | 500 to 5000 nM | 850 nM
NS(=O)(=O)N1CCC2(CC1)C[C@H]2c1noc(-c2ncccc2OCC(F)(F)F)n1 [Example E78] | 500 to 5000 nM | 1200 nM
NS(=O)(=O)N1CCC2(CC1)C[C@H]2c1nnc(-c2ccc(F)cc2C(F)(F)F)o1 [Example F1] | 500 to 5000 nM | 1500 nM
NS(=O)(=O)N1CCC2(CC1)C[C@H]2c1nnc(-c2cccc(C(F)(F)F)c2)o1 [Example F2] | 500 to 5000 nM | 
NS(=O)(=O)N1CCC2(CC1)C[C@H]2c1nnc(-c2cccc(OC(F)(F)F)c2)o1 [Example F3] | 500 to 5000 nM | 700 nM
NS(=O)(=O)N1CCC2(CC1)C[C@H]2c1nnc(-c2cc(F)ccc2F)s1 [Example F4] | 500 to 5000 nM | 1100 nM
Cc1ccc(F)cc1-c1nnc([C@@H]2CC23CCN(S(N)(=O)=O)CC3)o1 [Example F5] | 100 to 500 nM | 420 nM
NS(=O)(=O)N1CCC2(CC1)C[C@H]2c1nnc(-c2ccccc2OCC(F)(F)F)o1 [Example F6] | 500 to 5000 nM | 590 nM
NS(=O)(=O)N1CCC2(CC1)C[C@H]2c1nnc(-c2ccccc2OCC(F)(F)F)s1 [Example F7] | 100 to 500 nM | 480 nM
